These results are taken from patent publication US7186855B2, “Prodrugs of GABA analogs, compositions and uses thereof” (Xenoport, Inc., priority 2001, dated 2007).

Data set [1] deals with mouse. The following applies: cited from earlier work.
A short description of data set [2]: Uptake of gabapentin following intracolonic administration of gabapentin or gabapentin prodrugs in rats. It counts as in vivo. Conditions: dose equivalent to 25 mg gabapentin per kg. As for the experimental part: Sustained release oral dosage forms, which release drug slowly over periods of 6–24 hours, generally release a significant proportion of the dose within the colon. […] This experiment was conducted to assess the suitability of gabapentin prodrugs for use in an oral sustained release dosage form.
Rats were obtained commercially and were pre-cannulated in the both the ascending colon and the jugular vein. Animals were conscious at the time of the experiment. All animals were fasted overnight and until 4 hours post-dosing. Gabapentin or gabapentin prodrugs (59), (63), (69), (72), (77), (79), (85), (117) and (126) were administered as a solution (in water or PEG 400) directly into the colon via the cannula at a dose equivalent to 25 mg of gabapentin per kg. Blood samples (0.5 mL) were obtained from the jugular cannula at intervals over 8 hours and were quenched immediately by addition of acetonitrile/methanol to prevent further conversion of the prodrug. Blood samples were analyzed as described below.
• 1. In blank 1.5 mL eppendorf tubes, 300 μL of 50/50 acetonitrile/methanol and 20 μL of p-chlorophenylalanine was added as an internal standard. • 2. […]
An API 2000 LC/MS/MS spectrometer equipped with Shidmadzu 10DVp binary pumps and a CTC HTS-PAL autosampler were used in the analysis. […] The peaks were integrated using Analyst 1.1 quantitation software.

As to `NCC1(CC(=O)O)CCCCC1` [gabapentin], the “toxicity (LD50, mouse)” value in data set [1] is recorded as “more than 8000 mg/kg”.
`CC(OC(=O)NCC1(CC(=O)O)CCCCC1)OC(=O)C(C)C` (stereo not drawn) [(77), 1-{[(α-Isobutanoyloxyethoxy)carbonyl]aminomethyl}-1-Cyclohexane Acetic Acid]: in data set [2], the “gabapentin AUC relative to colonic administration of gabapentin itself” value was “greater than 10 fold” and the “maximum plasma concentration of gabapentin (Cmax) relative to colonic administration of gabapentin itself” value is recorded as “greater than 10 fold”.
Consider `O=C1CC2(CCCCC2)CN1` [lactam (5)], for which the “toxicity (LD50, mouse)” value in data set [1] is recorded as 300 mg/kg.
